According to ChEMBL document CHEMBL5653597, “CI-1033, an irreversible pan-erbB receptor inhibitor and its potential application for the treatment of breast cancer” (Semin Oncol, 2003):
Structures can show the parent of a compound that is named as a salt.

Key:
Set-up in all cases: species or system Homo sapiens
[1] = Inhibition of purified CDK2/Cyclin A (unknown origin)
[2] = Inhibition of purified PDGFR (unknown origin)
[3] = Inhibition of purified FGFR (unknown origin)

IC50 [1]: > 50 µM
IC50 [2]: > 50 µM
IC50 [3]: > 50 µM
SMILES: C=CC(=O)Nc1cc2c(Nc3ccc(F)c(Cl)c3)ncnc2cc1OCCCN1CCOCC1 [CANERTINIB DIHYDROCHLORIDE]
